One experiment has as its system FR74-specific T cells. The experiment in a line: Proliferation (thymidine incorporation) of T cells generated ex vivo with polypeptides. The experiment is classed as cell-based, FVB/N mice. The conditions noted are these: thymidine incorporation against native FR74; FIG. 5. How it is done:
FIG. 5 is a graph plotting proliferation (as measured by thymidine incorporation (CPM)) of T cells treated with the indicated polypeptides. Epitope nesting activates high affinity antigen-specific T cells. T cells were tested for incorporation against native FR74 polypeptide at various concentrations. Each data point is the mean of 3 determinations.
In terms of proliferation, only the dual modified polypeptide was able to generate T cells that were able to proliferate at 10^−9 g/mL (FIG. 5).
In order to determine whether furin cleavage is required, two methods are used: furin insensitive linkers and furin inhibitors. Blockade of enhanced ex vivo expansion mediated by the DC3 peptide using these two methods is powerful evidence, outside of a furin knockout mouse, that furin is required for the actions of DC3. Although it has already been shown that DC3 must be linked to antigen, as a control T cells are expanded using free FR74 mixed with free DC3. To test the role of furin with furin-insensitive linkers, RARR (SEQ ID NO:4) is replaced with VRVV (SEQ ID NO:41) with the polypeptides FR74.1, FR74.3, and FR74.8 as shown in FIG. 17. In parallel with these cultures, cultures are included in which inhibitors are included. […] On day 5, CPG is added to the cultures at 1 μg/mL, and the cells are ready for T cell induction on day 6. […]

The next experiment deals with Foxp3^+ T cells. The experiment in a line: Flow cytometry of CD4 T cell lines for FoxP3 expression. The experiment is classed as cell-based, FVB/N mice. The conditions noted are these: FIG. 31. An excerpt:
FIG. 31. […] Flow cytometry dot plots of naïve splenocytes, FR74-specific, FR74.4-specific CD4 T cell lines evaluating for FoxP3 expression. Quadrants set at isotype signal, and the lower right quadrant is percent of total cells in lymphocyte gate. T cells were derived from FVB/N mice.
For orientation: A flow cytometer gives signals particle by particle.

Where no end group is shown, it is not given here. [ ]: non-standard residue; d: D form. Ava = NCCCCC(=O)O

In the case of “FR74.4: dual conjugated polypeptide: FR74 nested between Ii-key and DC3 (Ac-LRMK[Ava]KDISYLYRFNWNHCGRARRFYPSYHSTPQRP)”, the “lowest peptide concentration at which generated T cells proliferate” value in the experiment with FR74-specific T cells is listed as 10^−9 g/mL. The “expansion of Foxp3+ T cells” value in the experiment with Foxp3^+ T cells was “blocks expansion of Foxp3^+ T cells”.

The values above are taken from patent publication US8858952B2, “Methods and materials for generating T cells” (Mayo Foundation for Medical Education and Research, priority 2009, dated 2014).
